Results as given in PubChem BioAssay (NCI).
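Protocol summary: plate cells (96-well), add compound at 5 concentrations, incubate 48 h, interpolate endpoints linearly. TGI: concentration producing complete growth inhibition.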

Assays:
Assay in all cases: DTP human tumour cell line panel, 48 h
UACC-257 melanoma = tested on: UACC-257 melanoma
SK-MEL-5 melanoma = tested on: SK-MEL-5 melanoma
BT-549 breast = tested on: BT-549 breast
SK-OV-3 ovarian = tested on: SK-OV-3 ovarian
OVCAR-3 ovarian = tested on: OVCAR-3 ovarian
LOX IMVI melanoma = tested on: LOX IMVI melanoma
MDA-N = tested on: MDA-N
SF-268 CNS = tested on: SF-268 CNS
HT29 colon = tested on: HT29 colon
NCI-H23 lung = tested on: NCI-H23 lung
T-47D breast = tested on: T-47D breast
HOP-92 NSCLC = tested on: HOP-92 NSCLC
UO-31 renal = tested on: UO-31 renal
A549 NSCLC = tested on: A549 NSCLC
COLO 205 colon = tested on: COLO 205 colon
K-562 leukemia = tested on: K-562 leukemia
786-0 renal = tested on: 786-0 renal
NCI-H522 lung = tested on: NCI-H522 lung
U251 CNS = tested on: U251 CNS
SR leukemia = tested on: SR leukemia
SK-MEL-28 melanoma = tested on: SK-MEL-28 melanoma
NCI/ADR-RES ovarian = tested on: NCI/ADR-RES ovarian
NCI-H226 lung = tested on: NCI-H226 lung
IGROV1 ovarian = tested on: IGROV1 ovarian
MCF7 breast = tested on: MCF7 breast
HS 578T breast = tested on: HS 578T breast
SK-MEL-2 melanoma = tested on: SK-MEL-2 melanoma
NCI-H460 lung = tested on: NCI-H460 lung
M14 melanoma = tested on: M14 melanoma
RPMI-8226 leukemia = tested on: RPMI-8226 leukemia
PC-3 prostate = tested on: PC-3 prostate
DU-145 prostate = tested on: DU-145 prostate
RXF 393 renal = tested on: RXF 393 renal
MOLT-4 leukemia = tested on: MOLT-4 leukemia
EKVX NSCLC = tested on: EKVX NSCLC
SW-620 colon = tested on: SW-620 colon
OVCAR-5 ovarian = tested on: OVCAR-5 ovarian
HCC-2998 colon = tested on: HCC-2998 colon
KM12 colon = tested on: KM12 colon
UACC-62 melanoma = tested on: UACC-62 melanoma
HL-60(TB) leukemia = tested on: HL-60(TB) leukemia
MDA-MB-231 breast = tested on: MDA-MB-231 breast
TK-10 renal = tested on: TK-10 renal
SF-539 CNS = tested on: SF-539 CNS
HOP-62 NSCLC = tested on: HOP-62 NSCLC
MDA-MB-435 = tested on: MDA-MB-435
HCT-15 colon = tested on: HCT-15 colon
CAKI-1 renal = tested on: CAKI-1 renal
A498 renal = tested on: A498 renal
CCRF-CEM leukemia = tested on: CCRF-CEM leukemia
ACHN renal = tested on: ACHN renal
SN12C renal = tested on: SN12C renal
OVCAR-8 ovarian = tested on: OVCAR-8 ovarian
SNB-19 CNS = tested on: SNB-19 CNS
MALME-3M melanoma = tested on: MALME-3M melanoma
SF-295 CNS = tested on: SF-295 CNS
SNB-75 CNS = tested on: SNB-75 CNS
HCT-116 colon = tested on: HCT-116 colon
OVCAR-4 ovarian = tested on: OVCAR-4 ovarian

In the case of `O=C1Nc2ccccc2/C1=C\c1c(Cl)[nH]c2ccccc12`, the TGI (UACC-257 melanoma) is reported as 17 µM, the TGI (SK-MEL-5 melanoma) is reported as 2.04 µM and the TGI (BT-549 breast) is reported as 6.22 µM. The TGI (SK-OV-3 ovarian) was 1.2 µM, the TGI (OVCAR-3 ovarian) was 17.5 µM and the TGI (LOX IMVI melanoma) was 6.15 µM. It also gave a TGI (MDA-N) of 0.486 µM, a TGI (SF-268 CNS) of 7.72 µM and a TGI (HT29 colon) of 0.598 µM. For the same compound, the TGI (NCI-H23 lung) was 16.1 µM, the TGI (T-47D breast) was > 100 µM and the TGI (HOP-92 NSCLC) was 3.6 µM. For the same compound, the TGI (UO-31 renal) was 6.84 µM, the TGI (A549 NSCLC) was 13.3 µM and the TGI (COLO 205 colon) was 1.23 µM. The TGI (K-562 leukemia) was 7.49 µM, the TGI (786-0 renal) was 3.66 µM and the TGI (NCI-H522 lung) was 3.54 µM. It also gave a TGI (U251 CNS) of 9.15 µM, a TGI (SR leukemia) of 918 nM and a TGI (SK-MEL-28 melanoma) of 0.78 µM. The TGI (NCI/ADR-RES ovarian) was 1.31 µM, the TGI (NCI-H226 lung) was 35.5 µM and the TGI (IGROV1 ovarian) was 1.35 µM. For the same compound, the TGI (MCF7 breast) was 10.6 µM, the TGI (HS 578T breast) was 2.57 µM and the TGI (SK-MEL-2 melanoma) was 6.67 µM. The TGI (NCI-H460 lung) was 2.59 µM, the TGI (M14 melanoma) was 4.12 µM and the TGI (RPMI-8226 leukemia) was 3.34 µM. For the same compound, the TGI (PC-3 prostate) was 3.46 µM, the TGI (DU-145 prostate) was 20 µM and the TGI (RXF 393 renal) was 3.55 µM. For the same compound, the TGI (MOLT-4 leukemia) was 12.6 µM, the TGI (EKVX NSCLC) was 5.29 µM and the TGI (SW-620 colon) was 5.45 µM. The TGI (OVCAR-5 ovarian) was 5.05 µM, the TGI (HCC-2998 colon) was 1.68 µM and the TGI (KM12 colon) was 1.67 µM. It also gave a TGI (UACC-62 melanoma) of 9.75 µM, a TGI (HL-60(TB) leukemia) of 0.728 µM and a TGI (MDA-MB-231 breast) of 14.3 µM. The TGI (TK-10 renal) was 6.65 µM, the TGI (SF-539 CNS) was 1.43 µM and the TGI (HOP-62 NSCLC) was 7.51 µM. For the same compound, the TGI (MDA-MB-435) was 0.417 µM, the TGI (HCT-15 colon) was 17.5 µM and the TGI (CAKI-1 renal) was 7.77 µM. It also gave a TGI (A498 renal) of 4.78 µM, a TGI (CCRF-CEM leukemia) of 3.44 µM and a TGI (ACHN renal) of 13.1 µM. For the same compound, the TGI (SN12C renal) was 17.5 µM, the TGI (OVCAR-8 ovarian) was 8.51 µM and the TGI (SNB-19 CNS) was 5.21 µM. It also gave a TGI (MALME-3M melanoma) of 6.39 µM and a TGI (SF-295 CNS) of 0.956 µM.
For `CC(C)c1cc(C(C)C)c(P2(=O)CC3C(Cl)(Cl)C3(C)C2)c(C(C)C)c1` (stereo not given), the TGI (UACC-257 melanoma) was 20.9 µM, the TGI (SK-MEL-5 melanoma) was 22.4 µM and the TGI (BT-549 breast) was 27.7 µM. For the same compound, the TGI (SK-OV-3 ovarian) was 31.3 µM, the TGI (OVCAR-3 ovarian) was 20.4 µM and the TGI (SNB-75 CNS) was 24.8 µM. For the same compound, the TGI (LOX IMVI melanoma) was 21.5 µM, the TGI (MDA-N) was 27.1 µM and the TGI (SF-268 CNS) was 25.3 µM. It also gave a TGI (HT29 colon) of 24.6 µM, a TGI (NCI-H23 lung) of 24.3 µM and a TGI (T-47D breast) of 27.7 µM. It also gave a TGI (HOP-92 NSCLC) of 27.3 µM, a TGI (UO-31 renal) of 3.44 µM and a TGI (A549 NSCLC) of 25.6 µM. For the same compound, the TGI (COLO 205 colon) was 25 µM, the TGI (K-562 leukemia) was > 44.1 µM and the TGI (786-0 renal) was 14.6 µM. For the same compound, the TGI (HCT-116 colon) was 20.2 µM, the TGI (NCI-H522 lung) was 4 µM and the TGI (U251 CNS) was 22 µM. The TGI (SR leukemia) was 3750 nM, the TGI (SK-MEL-28 melanoma) was 31.9 µM and the TGI (NCI/ADR-RES ovarian) was 16 µM. For the same compound, the TGI (NCI-H226 lung) was 34.3 µM, the TGI (OVCAR-4 ovarian) was 11.8 µM and the TGI (IGROV1 ovarian) was 29.5 µM. For the same compound, the TGI (MCF7 breast) was 19.5 µM, the TGI (HS 578T breast) was 47.8 µM and the TGI (SK-MEL-2 melanoma) was 24.8 µM. For the same compound, the TGI (NCI-H460 lung) was 24.4 µM, the TGI (M14 melanoma) was 23.2 µM and the TGI (RPMI-8226 leukemia) was > 25.5 µM. For the same compound, the TGI (PC-3 prostate) was 17.8 µM, the TGI (DU-145 prostate) was 28.9 µM and the TGI (RXF 393 renal) was 28.2 µM. The TGI (MOLT-4 leukemia) was > 23.1 µM, the TGI (EKVX NSCLC) was 31 µM and the TGI (SW-620 colon) was 26.4 µM. It also gave a TGI (OVCAR-5 ovarian) of 30.5 µM, a TGI (HCC-2998 colon) of 26.9 µM and a TGI (KM12 colon) of 28.4 µM. The TGI (UACC-62 melanoma) was 21.3 µM, the TGI (HL-60(TB) leukemia) was 10.7 µM and the TGI (MDA-MB-231 breast) was 24.8 µM. It also gave a TGI (TK-10 renal) of 24.5 µM, a TGI (SF-539 CNS) of 27.1 µM and a TGI (HOP-62 NSCLC) of 29 µM. The TGI (MDA-MB-435) was 26.8 µM, the TGI (HCT-15 colon) was 25.1 µM and the TGI (CAKI-1 renal) was 9.6 µM. It also gave a TGI (A498 renal) of 26.9 µM, a TGI (CCRF-CEM leukemia) of 6.03 µM and a TGI (ACHN renal) of 25.1 µM. For the same compound, the TGI (SN12C renal) was 29.3 µM, the TGI (OVCAR-8 ovarian) was 27.8 µM and the TGI (SNB-19 CNS) was 19.4 µM. The TGI (MALME-3M melanoma) was 33.2 µM and the TGI (SF-295 CNS) was 18.6 µM.
